Experimental data published in patent US20190047966A1, “NOVEL COMPOUND AND PHARMACOLOGICALLY ACCEPTABLE SALT THEREOF” (MEIJI SEIKA PHARMA CO., LTD., priority 2016, published 2019).
Counter-ions that a name gives are not always drawn.

How the values were obtained:
[1] = biological target: human histamine H1 receptor (Homo sapiens, UniProt P35367); test: Evaluation of Human H1 Receptor Affinity ([3H]pyrilamine binding); design: purchased PerkinElmer Inc; host or cells: CHO-K1; details: inhibition constant Ki, CHO-K1 membrane preparation
Sequence of human histamine H1 receptor (P35367 whole entry): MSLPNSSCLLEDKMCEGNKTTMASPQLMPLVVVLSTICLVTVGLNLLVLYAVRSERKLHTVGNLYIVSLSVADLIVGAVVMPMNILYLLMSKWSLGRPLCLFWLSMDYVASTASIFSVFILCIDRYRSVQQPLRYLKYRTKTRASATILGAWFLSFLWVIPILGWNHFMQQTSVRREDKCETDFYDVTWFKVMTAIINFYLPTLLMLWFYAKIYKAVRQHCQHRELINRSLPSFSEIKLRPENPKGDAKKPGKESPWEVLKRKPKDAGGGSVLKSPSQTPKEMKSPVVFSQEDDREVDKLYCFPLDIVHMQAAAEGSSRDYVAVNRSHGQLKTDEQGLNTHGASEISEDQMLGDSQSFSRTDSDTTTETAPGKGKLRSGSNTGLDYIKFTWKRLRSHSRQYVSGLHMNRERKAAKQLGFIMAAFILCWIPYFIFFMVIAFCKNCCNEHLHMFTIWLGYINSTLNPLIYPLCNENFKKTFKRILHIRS
Description: Test Example 1: Evaluation of Human H1 Receptor Affinity
Membrane preparation from recombinant CHO-K1 cell expressing the human histamine H1 receptor (PerkinElmer Inc.), radiolabeled ligand 1.2 nM [^3H]pyrilamine (PerkinElmer Inc.), and test compounds dissolved in DMSO were reacted at 25° C. for 3 hours in a buffering solution containing 50 mM tris-hydrochloric acid, pH 7.4, and 5 mM magnesium chloride on a 96 well plate, followed by filtration using a GF/B filter (PerkinElmer Inc.) pretreated with 0.3% polyethylenimine. The residue was washed four times with a buffering solution of 50 mM tris-hydrochloric acid, pH 7.4. Thereafter, a scintillation cocktail (MicroScint 20: PerkinElmer Inc.) was added to the GF/B filter, and the radioactivity of each well was measured using a liquid scintillation counter for 96-well (TopCount: PerkinElmer Inc.). The non-specific binding was evaluated in the presence of 1.0 μM pyrilamine. The inhibition constant Ki was calculated from the 50% inhibitory concentration (IC50 value) obtained in each test and the Kd value (1.1 nM) unique to this assay system, according to the Cheng-Prusoff equation.

[2] = biological target: T1, human histamine H4 receptor (Homo sapiens, UniProt Q9H3N8); test: Evaluation of Human H4 Receptor Affinity ([3H]histamine binding); details: inhibition constant Ki, CHO-K1 membrane preparation, read-out: Evaluation of H4 Receptor Affinity
T1 construct: purchased PerkinElmer Inc; host or cells: CHO-K1
Description: Test Example 2: Evaluation of Human H4 Receptor Affinity
Membrane preparation from recombinant CHO-K1 cell expressing the human histamine H4 receptor (PerkinElmer Inc.), radiolabeled ligand 8.2 nM [^3H]histamine (PerkinElmer Inc.), and compounds dissolved in DMSO were reacted at 25° C. for 90 minutes in a buffering solution containing 50 mM tris-hydrochloric acid, pH 7.4, and 1.25 mM EDTA on a 96 well plate, followed by filtration using a GF/B filter (PerkinElmer Inc.) pretreated with 0.3% polyethylenimine. The residue was washed four times with a buffering solution of 50 mM tris-hydrochloric acid, pH 7.4. Thereafter, a scintillation cocktail (MicroScint 20: PerkinElmer Inc.) was added to the GF/B filter, and the radioactivity of each well was measured using a liquid scintillation counter for 96-well (TopCount: PerkinElmer Inc.). The non-specific binding was evaluated in the presence of 1.0 μM histamine. The inhibition constant Ki was calculated from the 50% inhibitory concentration (IC50 value) obtained in each test and the Kd value (5.7 nM) unique to this assay system, according to the Cheng-Prusoff equation.

Row | SMILES | Ki [1] [nM] | Ki [2] [nM]
1 | N#CC1(C(=O)O)CCC(COCCN2CCN(c3nc(N)nc4c3CCc3cc(OCc5ccc(Cl)cc5)ccc3-4)CC2)CC1 (stereo not drawn) [160(b), trans- or cis-4-((2-(4-(2-amino-8-((4-chlorobenzyl)oxy)-5,6-dihydrobenzo[h]quinazolin-4-yl)piperazin-1-yl)ethoxy)methyl)-1-cyanocyclohexane-1-carboxylic acid] | < 100 | < 100
2 | Nc1nc2c(c(N3CCNCC3)n1)CCc1cc(OCc3ccc(Cl)cc3)ccc1-2 [Example 4, 8-((4-chlorobenzyl)oxy)-4-(piperazin-1-yl)-5,6-dihydrobenzo[h]quinazolin-2-amine] | < 100 | < 100
3 | Nc1nc2c(c(N3CCNCC3)n1)CCc1cc(OCc3ccccc3)ccc1-2 [Example 5, 8-(benzyloxy)-4-(piperazin-1-yl)-5,6-dihydrobenzo[h]quinazolin-2-amine] | < 100 | < 100
4 | Nc1nc2c(c(N3CCNCC3)n1)CCc1cc(OCc3ccc(OC(F)(F)F)cc3)ccc1-2 [Example 6, 4-(piperazin-1-yl)-8-((4-(trifluoromethoxy)benzyl)oxy)-5,6-dihydrobenzo[h]quinazolin-2-amine] | < 100 | < 100
5 | Nc1nc2c(c(N3CCN(CCOCCO)CC3)n1)CCc1cc(OCc3ccc(Cl)cc3)ccc1-2 [Example 8, 2-(2-(4-(2-amino-8-((4-chlorobenzyl)oxy)-5,6-dihydrobenzo[h]quinazolin-4-yl)piperazin-1-yl)ethoxy)ethan-1-ol] | < 100 | < 100
6 | Nc1nc2c(c(N3CCN(CCOCCOCCO)CC3)n1)CCc1cc(OCc3ccc(Cl)cc3)ccc1-2 [Example 9, 2-(2-(2-(4-(2-amino-8-((4-chlorobenzyl)oxy)-5,6-dihydrobenzo[h]quinazolin-4-yl)piperazin-1-yl)ethoxy)ethoxy)ethan-1-ol] | < 100 | < 100
7 | N#CCOCCOCCN1CCN(c2nc(N)nc3c2CCc2cc(OCc4ccc(Cl)cc4)ccc2-3)CC1 [Example 10, 2-(2-(2-(4-(2-amino-8-((4-chlorobenzyl)oxy)-5,6-dihydrobenzo[h]quinazolin-4-yl)piperazin-1-yl)ethoxy)ethoxy)acetonitrile] | < 100 | < 100
8 | Nc1nc2c(c(N3CCN(CCO[C@H]4CC[C@@H](C(=O)O)CC4)CC3)n1)CCc1cc(OCc3ccc(Cl)cc3)ccc1-2 [Example 24, cis-4-(2-(4-(2-amino-8-((4-chlorobenzyl)oxy)-5,6-dihydrobenzo[h]quinazolin-4-yl)piperazin-1-yl)ethoxy)cyclohexane-1-carboxylic acid] | < 100 | 100 to 500
9 | Nc1nc2c(c(N3CCN(CCOC[C@H]4CC[C@@H](C(=O)O)CC4)CC3)n1)CCc1cc(OCc3ccc(OC(F)(F)F)cc3)ccc1-2 [Example 27, cis-4-((2-(4-(2-amino-8-((4-(trifluoromethoxy)benzyl)oxy)-5,6-dihydrobenzo[h]quinazolin-4-yl)piperazin-1-yl)ethoxy)methyl)cyclohexane-1-carboxylic acid dihydrochloride] | < 100 | < 100
10 | Nc1nc2c(c(N3CCN(CCO[C@H]4CC[C@H](C(=O)O)CC4)CC3)n1)CCc1cc(OCc3ccc(Cl)cc3)ccc1-2 [Example 28, trans-4-(2-(4-(2-amino-8-((4-chlorobenzyl)oxy)-5,6-dihydrobenzo[h]quinazolin-4-yl)piperazin-1-yl)ethoxy)cyclohexane-1-carboxylic acid] | < 100 | < 100
11 | CC1(C(=O)O)CC(OCCN2CCN(c3nc(N)nc4c3CCc3cc(OCc5ccc(OC(F)(F)F)cc5)ccc3-4)CC2)C1 (stereo not drawn) [Example 31, cis-3-(2-(4-(2-amino-8-((4-(trifluoromethoxy)benzyl)oxy)-5,6-dihydrobenzo[h]quinazolin-4-yl)piperazin-1-yl)ethoxy)-1-methylcyclobutane-1-carboxylic acid] | < 100 | 100 to 500
12 | Nc1nc2c(c(N3CCN(CCO[C@H]4C[C@@H](C(N)=O)C4)CC3)n1)CCc1cc(OCc3ccc(OC(F)(F)F)cc3)ccc1-2 [Example 33, cis 3-(2-(4-(2-amino-8-((4-(trifluoromethoxy)benzyl)oxy)-5,6-dihydrobenzo[h]quinazolin-4-yl)piperazin-1-yl)ethoxy)cyclobutane-1-carboxamide] | < 100 | < 100
13 | CN1CCN(c2nc(N)nc3c2CCc2cc(NS(=O)(=O)c4ccccc4)ccc2-3)CC1 [Example 41, N-(2-amino-4-(4-methylpiperazin-1-yl)-5,6-dihydrobenzo[h]quinazolin-8-yl)benzenesulfonamide] | 100 to 500 | 100 to 500
14 | CN1CCN(c2nc(N)nc3c2CCc2cc(NS(=O)(=O)c4ccc(Cl)s4)ccc2-3)CC1 [Example 44, N-(2-amino-4-(4-methylpiperazin-1-yl)-5,6-dihydrobenzo[h]quinazolin-8-yl)-5-chlorothiophene-2-sulfonamide] | 100 to 500 | 100 to 500
15 | CN1CCN(c2nc(N)nc3c2CCc2cc(NS(=O)(=O)c4ccc(Cl)c(F)c4)ccc2-3)CC1 [Example 45, N-(2-amino-4-(4-methylpiperazin-1-yl)-5,6-dihydrobenzo[h]quinazolin-8-yl)-4-chloro-3-fluorobenzenesulfonamide] | < 100 | 100 to 500

The next lines start with the values.

Row | Ki [1] [nM] | Ki [2] [nM] | SMILES
16 | < 100 | 100 to 500 | CCOC(=O)C1CCC(O)(COCCN2CCN(c3nc(N)nc4c3CCc3cc(OCc5ccc(Cl)cc5)ccc3-4)CC2)CC1 (stereo not drawn) [166(a), ethyl cis- or trans-4-((2-(4-(2-amino-8-((4-chlorobenzyl)oxy)-5,6-dihydrobenzo[h]quinazolin-4-yl)piperazin-1-yl)ethoxy)methyl)-4-hydroxycyclohexane-1-carboxylate]
17 | < 100 | 100 to 500 | Nc1nc2c(c(N3CCN(CCOCC4(O)CCC(C(=O)O)CC4)CC3)n1)CCc1cc(OCc3ccc(Cl)cc3)ccc1-2 (stereo not drawn) [166(b), cis- or trans-4-((2-(4-(2-amino-8-((4-chlorobenzyl)oxy)-5,6-dihydrobenzo[h]quinazolin-4-yl)piperazin-1-yl)ethoxy)methyl)-4-hydroxycyclohexane-1-carboxylic acid]
18 | < 100 | 100 to 500 | Nc1nc2c(c(N3CCN(CCO)CC3)n1)CCc1cc(OCc3ccccc3)ccc1-2 [Example 7, 2-(4-(2-amino-8-(benzyloxy)-5,6-dihydrobenzo[h]quinazolin-4-yl)piperazin-1-yl)ethan-1-ol]
19 | < 100 | < 100 | Nc1nc2c(c(N3CCN(CCO[C@H]4C[C@H](C(=O)O)C4)CC3)n1)CCc1cc(OCc3ccc(OC(F)(F)F)cc3)ccc1-2 [Example 30, trans-3-(2-(4-(2-amino-8-((4-(trifluoromethoxy)benzyl)oxy)-5,6-dihydrobenzo[h]quinazolin-4-yl)piperazin-1-yl)ethoxy)cyclobutane-1-carboxylic acid]
20 | < 100 | < 100 | Nc1nc2c(c(N3CCN(CCO[C@H]4C[C@H](C(N)=O)C4)CC3)n1)CCc1cc(OCc3ccc(OC(F)(F)F)cc3)ccc1-2 [Example 34, trans-3-(2-(4-(2-amino-8-((4-(trifluoromethoxy)benzyl)oxy)-5,6-dihydrobenzo[h]quinazolin-4-yl)piperazin-1-yl)ethoxy)cyclobutane-1-carboxamide]
21 | < 100 | < 100 | CN1CCN(c2nc(N)nc3c2CCc2cc(NS(=O)(=O)CCCOc4ccccc4)ccc2-3)CC1 [Example 40, N-(2-amino-4-(4-methylpiperazin-1-yl)-5,6-dihydrobenzo[h]quinazolin-8-yl)-3-phenoxypropane-1-sulfonamide]
22 | 100 to 500 | 100 to 500 | CN1CCN(c2nc(N)nc3c2CCc2cc(NS(=O)(=O)c4cccc(Cl)c4)ccc2-3)CC1 [Example 43, N-(2-amino-4-(4-methylpiperazin-1-yl)-5,6-dihydrobenzo[h]quinazolin-8-yl)-3-chlorobenzenesulfonamide]
23 | < 100 | 100 to 500 | CN1CCN(c2nc(N)nc3c2CCc2cc(NS(=O)(=O)c4ccc(Cl)cc4F)ccc2-3)CC1 [Example 46, N-(2-amino-4-(4-methylpiperazin-1-yl)-5,6-dihydrobenzo[h]quinazolin-8-yl)-4-chloro-2-fluorobenzenesulfonamide]
24 | 100 to 500 | 100 to 500 | CN1CCN(c2nc(N)nc3c2CCc2cc(NS(=O)(=O)c4ccc(C#N)cc4)ccc2-3)CC1 [Example 47, N-(2-amino-4-(4-methylpiperazin-1-yl)-5,6-dihydrobenzo[h]quinazolin-8-yl)-4-cyanobenzenesulfonamide]
